pIC50: −log10 of the molar value.
Target: USP30 (Homo sapiens (Human), UniProt Q70CQ3)
Test: USP30 biochemical IC50 assay
Settings: read-out: IC50 range; fluorescence polarisation, TAMRA labelled peptide linked to ubiquitin; 30 min pre-incubation, read after 2 hr
Method: USP30 Biochemical IC50 Assay
Dilution plates were prepared at 21 times the final concentration (2100 μM for a final concentration of 100 μM) in 50% DMSO in a 96-well polypropylene V-bottom plate (Greiner #651201). A typical 8-point dilution series to be 100, 30, 10, 3, 1, 0.3, 0.1, 0.03 μM final. Reactions were performed in duplicate in black 384 well plates (small volume, Greiner 784076) in a final reaction volume of 21 μl. Either 1 μl of 50% DMSO or diluted compound was added to the plate. USP30 was diluted in reaction buffer (40 mM Tris, pH 7.5, 0.005% Tween 20, 0.5 mg/ml BSA, 5 mM—beta-mercaptoethanol) to the equivalent of 0.05 μl/well and 10 μl of diluted USP30 was added to the compound. Enzyme and compound were incubated for 30 min at room temp. Reactions were initiated by the addition of 50 nM of TAMRA labelled peptide linked to ubiquitin via an iso-peptide bond as fluorescence polarisation substrate. Reactions were read immediately after addition of substrate and following a 2 hr incubation at room temperature. Readings were performed on a Pherastar Plus (BMG Labtech). λ Excitation 540 nm; λ Emission 590 nm.

USP30, sequence (Q70CQ3 57-517): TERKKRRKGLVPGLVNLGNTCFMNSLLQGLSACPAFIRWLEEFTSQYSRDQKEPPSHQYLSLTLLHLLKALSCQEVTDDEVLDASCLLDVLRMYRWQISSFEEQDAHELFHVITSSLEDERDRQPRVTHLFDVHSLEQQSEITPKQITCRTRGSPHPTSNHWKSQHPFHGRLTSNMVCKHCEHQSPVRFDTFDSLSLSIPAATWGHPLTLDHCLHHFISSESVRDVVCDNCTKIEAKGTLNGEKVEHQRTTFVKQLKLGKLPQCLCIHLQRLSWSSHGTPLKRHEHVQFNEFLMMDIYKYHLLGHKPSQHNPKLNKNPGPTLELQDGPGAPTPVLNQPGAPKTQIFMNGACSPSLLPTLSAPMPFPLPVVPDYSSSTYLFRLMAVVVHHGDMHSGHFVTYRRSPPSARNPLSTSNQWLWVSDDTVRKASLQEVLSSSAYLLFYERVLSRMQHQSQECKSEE

SMILES | pIC50
C[C@H]1CN(C#N)C[C@@H]1N1CCN(c2cccc(N3CCOCC3)c2)S1(=O)=O [Example 41, (3S,4R)-3-methyl-4-(5-(3-morpholinophenyl)-1,1-dioxido-1,2,5-thiadiazolidin-2-yl)pyrrolidine-1-carbonitrile] | 6.00 to 7.00
COc1ccc(N2CCN([C@@H]3CCN(C#N)C3)S2(=O)=O)cc1-c1ccccc1 [Example 42, (R)-3-(5-(6-methoxy-[1,1′-biphenyl]-3-yl)-1,1-dioxido-1,2,5-thiadiazolidin-2-yl)pyrrolidine-1-carbonitrile] | > 7.00
N#CN1CC[C@@H](N2CCN(c3ccc4nc(C(F)(F)F)[nH]c4c3)S2(=O)=O)C1 [Example 44, (R)-3-(1,1-dioxido-5-(2-(trifluoromethyl)-1H-benzo[d]imidazol-5-yl)-1,2,5-thiadiazolidin-2-yl)pyrrolidine-1-carbonitrile] | 6.00 to 7.00
N#CN1CC[C@@H](NS(=O)(=O)Nc2ccc3nc(C(F)(F)F)[nH]c3c2)C1 [Example 45] | 5.00 to 6.00
N#CN1CC[C@@H](N2CCCN(c3ccc4nc(C(F)(F)F)[nH]c4c3)S2(=O)=O)C1 [Example 46, (R)-3-(1,1-dioxido-6-(2-(trifluoromethyl)-1H-benzo[d]imidazol-6-yl)-1,2,6-thiadiazinan-2-yl)pyrrolidine-1-carbonitrile] | 5.00 to 6.00
N#CN1CC[C@H](N2CCN(c3cccc(-c4ccccn4)c3)S2(=O)=O)C1 [Example 47, (S)-3-(1,1-dioxido-5-(3-(pyridin-2-yl)phenyl)-1,2,5-thiadiazolidin-2-yl)pyrrolidine-1-carbonitrile] | 6.00 to 7.00
N#CN1CC[C@H](N2CCN(c3cccc(-c4cccnc4)c3)S2(=O)=O)C1 [Example 48, (S)-3-(1,1-dioxido-5-(3-(pyridin-3-yl)phenyl)-1,2,5-thiadiazolidin-2-yl)pyrrolidine-1-carbonitrile] | 6.00 to 7.00
N#CN1CC[C@@H](N2CCN(c3ccnc(N4CCOCC4)c3)S2(=O)=O)C1 [Example 50, (R)-3-(5-(2-morpholinopyridin-4-yl)-1,1-dioxido-1,2,5-thiadiazolidin-2-yl)pyrrolidine-1-carbonitrile] | > 7.00
N#CN1CC[C@@H](N2CCN(c3nccc(N4CCOCC4)n3)S2(=O)=O)C1 [Example 51, (R)-3-(5-(4-morpholinopyrimidin-2-yl)-1,1-dioxido-1,2,5-thiadiazolidin-2-yl)pyrrolidine-1-carbonitrile] | 6.00 to 7.00
CN1CCN(c2cc(N3CCN([C@@H]4CCN(C#N)C4)S3(=O)=O)ccn2)CC1 [Example 52, (R)-3-(5-(2-(4-methylpiperazin-1-yl)pyridin-4-yl)-1,1-dioxido-1,2,5-thiadiazolidin-2-yl)pyrrolidine-1-carbonitrile] | 6.00 to 7.00
CO[C@@H]1CCN(c2cccc(N3CCN([C@@H]4CCN(C#N)C4)S3(=O)=O)c2)C1 [Example 53, (R)-3-(5-(3-((R)-3-methoxypyrrolidin-1-yl)phenyl)-1,1-dioxido-1,2,5-thiadiazolidin-2-yl)pyrrolidine-1-carbonitrile] | 6.00 to 7.00
CO[C@@H]1CCN(c2cc(N3CCN([C@@H]4CCN(C#N)C4)S3(=O)=O)ccn2)C1 [Example 54, (R)-3-(5-(2-((R)-3-methoxypyrrolidin-1-yl)pyridin-4-yl)-1,1-dioxido-1,2,5-thiadiazolidin-2-yl)pyrrolidine-1-carbonitrile] | 6.00 to 7.00
COC1CN(c2cc(N3CCN([C@@H]4CCN(C#N)C4)S3(=O)=O)ccn2)C1 [Example 55, (R)-3-(5-(2-(3-methoxyazetidin-1-yl)pyridin-4-yl)-1,1-dioxido-1,2,5-thiadiazolidin-2-yl)pyrrolidine-1-carbonitrile] | 6.00 to 7.00
COCCN(CCOC)c1cc(N2CCN([C@@H]3CCN(C#N)C3)S2(=O)=O)ccn1 [Example 56, (R)-3-(5-(2-(bis(2-methoxyethyl)amino)pyridin-4-yl)-1,1-dioxido-1,2,5-thiadiazolidin-2-yl)pyrrolidine-1-carbonitrile] | 6.00 to 7.00
N#CN1CCC(NS(=O)(=O)Nc2cccc(-c3ccccc3)c2)C1 (centres unmarked) [Example 57, N-biphenyl-3-yl-N′-(1-cyanopyrrolidin-3-yl)sulfuric diamide] | 6.00 to 7.00
N#CN1CCC(NS(=O)(=O)Nc2ccc(-c3ccccc3)cc2)C1 (centres unmarked) [Example 58, N-biphenyl-4-yl-N′-(1-cyanopyrrolidin-3-yl)sulfuric diamide] | 6.00 to 7.00
N#CN1CCC(NS(=O)(=O)N2CCC(c3ccccc3)CC2)C1 (centres unmarked) [Example 59, N-(1-cyanopyrrolidin-3-yl)-4-phenylpiperidine-1-sulfonamide] | 6.00 to 7.00
N#CN1CCC(NS(=O)(=O)N2CCN(c3ccccc3)CC2)C1 (centres unmarked) [Example 60, N-(1-cyanopyrrolidin-3-yl)-4-phenylpiperazine-1-sulfonamide] | 6.00 to 7.00
N#CN1CCC(NS(=O)(=O)N2CCc3ccccc32)C1 (centres unmarked) [Example 61, N-(1-cyanopyrrolidin-3-yl)indoline-1-sulfonamide] | 5.00 to 6.00
N#CN1CC[C@@H](NS(=O)(=O)N2CCc3ccccc3C2)C1 [Example 62, (R)—N-(1-cyanopyrrolidin-3-yl)-3,4-dihydroisoquinoline-2(1H)-sulfonamide] | 5.00 to 6.00
N#CN1CC[C@@H](NS(=O)(=O)N2CCc3cc(-c4ccccc4)ccc32)C1 [Example 63, (R)—N-(1-cyanopyrrolidin-3-yl)-5-phenylindoline-1-sulfonamide] | 6.00 to 7.00
N#CN1CC[C@@H](NS(=O)(=O)N2CCc3c(-c4ccccc4)cccc32)C1 [Example 64, (R)—N-(1-cyanopyrrolidin-3-yl)-4-phenylindoline-1-sulfonamide] | 6.00 to 7.00
COc1ccc2c(c1)CCN(S(=O)(=O)N[C@@H]1CCN(C#N)C1)C2 [Example 65, (R)—N-(1-cyanopyrrolidin-3-yl)-6-methoxy-3,4-dihydroisoquinoline-2(1H)-sulfonamide] | 6.00 to 7.00
CN1c2ccccc2N([C@@H]2CCN(C#N)C2)S1(=O)=O [Example 66, (R)-3-(3-methyl-2,2-dioxidobenzo[c][1,2,5]thiadiazol-1(3H)-yl)pyrrolidine-1-carbonitrile] | 5.00 to 6.00
N#CN1CC[C@@H](N2c3ccccc3N(Cc3ccccc3)S2(=O)=O)C1 [Example 67, (R)-3-(3-benzyl-2,2-dioxidobenzo[c][1,2,5]thiadiazol-1(3H)-yl)pyrrolidine-1-carbonitrile] | 6.00 to 7.00
N#CN1CC[C@@H](N2c3ccccc3N(Cc3cccnc3)S2(=O)=O)C1 [Example 68, (R)-3-(2,2-dioxido-3-(pyridin-3-ylmethyl)benzo[c][1,2,5]thiadiazol-1(3H)-yl)pyrrolidine-1-carbonitrile] | 5.00 to 6.00
N#CN1CC[C@@H](N2Cc3ccccc3N(Cc3ccccc3)S2(=O)=O)C1 [Example 69, (R)-3-(1-benzyl-2,2-dioxido-1,4-dihydro-3H-benzo[c][1,2,6]thiadiazin-3-yl)pyrrolidine-1-carbonitrile] | 6.00 to 7.00
Cn1cc(-c2ccc3c(c2)NS(=O)(=O)N([C@@H]2CCN(C#N)C2)C3)cn1 [Example 71, (R)-3-(7-(1-methyl-1H-pyrazol-4-yl)-2,2-dioxido-1,4-dihydro-3H-benzo[c][1,2,6]thiadiazin-3-yl)pyrrolidine-1-carbonitrile] | 6.00 to 7.00
N#CN1CC[C@@H](N2Cc3ccc(-c4ccccc4)cc3NS2(=O)=O)C1 [Example 72, (R)-3-(2,2-dioxido-7-phenyl-1,4-dihydro-3H-benzo[c][1,2,6]thiadiazin-3-yl)pyrrolidine-1-carbonitrile] | 6.00 to 7.00

From patent publication US11091488B2 (MISSION THERAPEUTICS LIMITED, priority 2015, dated 2021)
